Results reported in patent US4419123A, “Herbicidal 4-trifluoromethyl-3'-carbon-substituted-4'-substituted diphenyl ethers” (Rohm and Haas Company, priority 1981, dated 1983).

What was measured:
[1] = Postemergence herbicidal activity (% control) against dicot weeds; conditions: post-emergence, 336 h; for activity at 2241.7 g/ha: read-out: Herbicidal activity (% control), postemergence, dicots, 2 lb./A., average, about two weeks after application; for activity at 4483.4 g/ha: read-out: Herbicidal activity (% control), postemergence, dicots, 4 lb./A., average, about two weeks after application
[2] = Preemergence herbicidal activity (% control) against monocot weeds; type: in vivo; conditions: pre-emergence, 336 h, average, about two weeks after application, read-out: Herbicidal activity (% control), preemergence, monocots; for activity at 2241.7 g/ha: 2 lb./A.; for activity at 4483.4 g/ha: 4 lb./A.
Excerpt: (§1) barnyardgrass (Echinochloa crusgalli) crabgrass (Digitaria spp.) nutsedge (Cyperus esculentus)
(§2) At 2 and 4 pounds per acre:
(§3) **Bermudagrass (Cynodon dactylon)
(§4) *downy brome (Bromus tectorum) foxtail (Setaria faberii)
(§5) Johnsongrass (Sorghum halepense) […]
(§6) quackgrass (Agropyron repens)
(§7) *ryegrass (Lolium perenne)
(§8) *wild oats (Avena factua)
(§9) *yellow millet (Panicum miliaceum)
(§10) The following test procedure is employed.

[3] = Preemergence herbicidal activity (% control) against dicot weeds; conditions: pre-emergence, 336 h; for activity at 2241.7 g/ha: read-out: Herbicidal activity (% control), preemergence, dicots, 2 lb./A., average, about two weeks after application; for activity at 4483.4 g/ha: read-out: Herbicidal activity (% control), preemergence, dicots, 4 lb./A., average, about two weeks after application
peanuts = test: Crop tolerance (selective herbicidal activity), peanuts; type: in vivo
Protocol: as §10
(§11) Following the general test procedure of Example 37, diphenyl ethers are evaluated for significant tolerance (as shown by 50% or less kill of the test crop at levels of application which give more than 50% kill of many or all of the weeds of Example 73) towards some or all of the following common agronomic crops (not all compounds tested against all crops): alfalfa, snapbeans, corn, cotton, cucumbers, peanuts, rape, rice, safflower, soybeans, tomatoes, and wheat.

soybeans = test: Crop tolerance (selective herbicidal activity), soybeans; type: in vivo; conditions: preemergence applications
Protocol: as §10, §11

corn = test: Crop tolerance (selective herbicidal activity), corn; type: in vivo
Protocol: as §10, §11

rice = test: Crop tolerance (selective herbicidal activity), rice; type: in vivo
Protocol: as §10, §11

wheat = test: Crop tolerance (selective herbicidal activity), wheat; type: in vivo
Protocol: as §10, §11

[4] = Postemergence herbicidal activity (% control) against monocot weeds; type: in vivo; conditions: post-emergence, 336 h, average, about two weeks after application, read-out: Herbicidal activity (% control), postemergence, monocots; for activity at 2241.7 g/ha: 2 lb./A.; for activity at 4483.4 g/ha: 4 lb./A.
Excerpt: as §1, §2, §3, §4, §5, §6, §7, §8, §9, §10

[5] = postemergence applications or applications on transplanted rice

Structure (SMILES) | activity at 2241.7 g/ha [1] [%] | activity at 4483.4 g/ha [1] [%] | activity at 2241.7 g/ha [2] [%] | activity at 4483.4 g/ha [2] [%] | activity at 2241.7 g/ha [3] [%] | activity at 4483.4 g/ha [3] [%] | Tolerance to peanuts (peanuts; postemergence applications) | Tolerance to soybeans (soybeans) | Tolerance to corn (corn; postemergence applications) | Tolerance to rice (rice; [5]) | Tolerance to wheat (wheat; postemergence applications) | Tolerance to wheat (wheat; preemergence applications) | activity at 2241.7 g/ha [4] [%] | activity at 4483.4 g/ha [4] [%] | Tolerance to peanuts (peanuts; preemergence applications) | Tolerance to corn (corn; preemergence applications) | Tolerance to rice (rice; preemergence applications)
CC(=O)Oc1cc(Oc2ccc(C(F)(F)F)cc2Cl)ccc1[N+](=O)[O-] [Example 18, 2-Chloro-α,α,α-trifluoro-p-tolyl-3-acetoxy-4-nitrophenylether] | 98 | 86 | 99 | 67 | 100 | 100 | Tolerance (significant tolerance (as shown by 50% or less kill of the test crop at levels of application which give more than 50% kill of many or all of the weeds of Example 73)) | Tolerance (significant tolerance (as shown by 50% or less kill of the test crop at levels of application which give more than 50% kill of many or all of the weeds of Example 73)) | Tolerance (significant tolerance (as shown by 50% or less kill of the test crop at levels of application which give more than 50% kill of many or all of the weeds of Example 73)) | Tolerance (significant tolerance (as shown by 50% or less kill of the test crop at levels of application which give more than 50% kill of many or all of the weeds of Example 73)) | Tolerance (significant tolerance (as shown by 50% or less kill of the test crop at levels of application which give more than 50% kill of many or all of the weeds of Example 73)) | Tolerance (significant tolerance (as shown by 50% or less kill of the test crop at levels of application which give more than 50% kill of many or all of the weeds of Example 73)) | 28 | 28 | – | – | –
Cc1cc(Oc2ccc(C(F)(F)F)cc2Cl)ccc1[N+](=O)[O-] [Example 36] | 98 | 100 | 100 | 93 | – | 100 | Tolerance (significant tolerance (as shown by 50% or less kill of the test crop at levels of application which give more than 50% kill of many or all of the weeds of Example 73)) | – | Tolerance (significant tolerance (as shown by 50% or less kill of the test crop at levels of application which give more than 50% kill of many or all of the weeds of Example 73)) | – | Tolerance (significant tolerance (as shown by 50% or less kill of the test crop at levels of application which give more than 50% kill of many or all of the weeds of Example 73)) | – | 94 | 87 | Tolerance (significant tolerance (as shown by 50% or less kill of the test crop at levels of application which give more than 50% kill of many or all of the weeds of Example 73)) | – | –
O=C(O)c1cc(Oc2ccc(C(F)(F)F)cc2Cl)ccc1[N+](=O)[O-] [Example 48, 2-Chloro-α,α,α-trifluoro-p-tolyl-3-carboxy-4-nitrophenylether] | 97 | 100 | 100 | 99 | 100 | 97 | Tolerance (significant tolerance (as shown by 50% or less kill of the test crop at levels of application which give more than 50% kill of many or all of the weeds of Example 73)) | Tolerance (significant tolerance (as shown by 50% or less kill of the test crop at levels of application which give more than 50% kill of many or all of the weeds of Example 73)) | – | Tolerance (significant tolerance (as shown by 50% or less kill of the test crop at levels of application which give more than 50% kill of many or all of the weeds of Example 73)) | Tolerance (significant tolerance (as shown by 50% or less kill of the test crop at levels of application which give more than 50% kill of many or all of the weeds of Example 73)) | – | 84 | 75 | Tolerance (significant tolerance (as shown by 50% or less kill of the test crop at levels of application which give more than 50% kill of many or all of the weeds of Example 73)) | – | –
COC(=O)C(C)Oc1cc(Oc2ccc(C(F)(F)F)cc2Cl)ccc1[N+](=O)[O-] (stereo not drawn) [Example 50] | – | 100 | 98 | 90 | 100 | 83 | – | Tolerance (significant tolerance (as shown by 50% or less kill of the test crop at levels of application which give more than 50% kill of many or all of the weeds of Example 73)) | – | – | – | Tolerance (significant tolerance (as shown by 50% or less kill of the test crop at levels of application which give more than 50% kill of many or all of the weeds of Example 73)) | 100 | 97 | Tolerance (significant tolerance (as shown by 50% or less kill of the test crop at levels of application which give more than 50% kill of many or all of the weeds of Example 73)) | – | –
CNC(=O)C(C)Oc1cc(Oc2ccc(C(F)(F)F)cc2Cl)ccc1[N+](=O)[O-] (stereo not drawn) [Example 52] | 100 | 100 | 98 | 79 | 75 | 67 | – | Tolerance (significant tolerance (as shown by 50% or less kill of the test crop at levels of application which give more than 50% kill of many or all of the weeds of Example 73)) | Tolerance (significant tolerance (as shown by 50% or less kill of the test crop at levels of application which give more than 50% kill of many or all of the weeds of Example 73)) | – | – | – | 93 | 87 | Tolerance (significant tolerance (as shown by 50% or less kill of the test crop at levels of application which give more than 50% kill of many or all of the weeds of Example 73)) | Tolerance (significant tolerance (as shown by 50% or less kill of the test crop at levels of application which give more than 50% kill of many or all of the weeds of Example 73)) | Tolerance (significant tolerance (as shown by 50% or less kill of the test crop at levels of application which give more than 50% kill of many or all of the weeds of Example 73))
CC(Oc1cc(Oc2ccc(C(F)(F)F)cc2Cl)ccc1[N+](=O)[O-])C(=O)N(C)C (stereo not drawn) [Example 53] | 100 | 100 | 98 | 98 | 100 | 83 | Tolerance (significant tolerance (as shown by 50% or less kill of the test crop at levels of application which give more than 50% kill of many or all of the weeds of Example 73)) | Tolerance (significant tolerance (as shown by 50% or less kill of the test crop at levels of application which give more than 50% kill of many or all of the weeds of Example 73)) | Tolerance (significant tolerance (as shown by 50% or less kill of the test crop at levels of application which give more than 50% kill of many or all of the weeds of Example 73)) | Tolerance (significant tolerance (as shown by 50% or less kill of the test crop at levels of application which give more than 50% kill of many or all of the weeds of Example 73)) | – | – | 81 | 79 | Tolerance (significant tolerance (as shown by 50% or less kill of the test crop at levels of application which give more than 50% kill of many or all of the weeds of Example 73)) | – | –
CCOc1cc(Oc2c(Cl)cc(C(F)(F)F)cc2Cl)ccc1[N+](=O)[O-] [Example 56, 2,6-Dichloro-α,α,α-trifluoro-p-tolyl-3-ethoxy-4-nitrophenyl ether] | 99 | 100 | 100 | 91 | – | 83 | – | – | Tolerance (significant tolerance (as shown by 50% or less kill of the test crop at levels of application which give more than 50% kill of many or all of the weeds of Example 73)) | – | – | Tolerance (significant tolerance (as shown by 50% or less kill of the test crop at levels of application which give more than 50% kill of many or all of the weeds of Example 73)) | 100 | 99 | Tolerance (significant tolerance (as shown by 50% or less kill of the test crop at levels of application which give more than 50% kill of many or all of the weeds of Example 73)) | – | –
